According to US9549906B2, “Compositions and methods for treatment of ocular inflammation and/or pain” (priority 2013, dated 2017):
“Also recorded” adds a separate entry of the source.

Key:
[1] = system: endotoxin-induced uveitis (EIU) model; test: Endotoxin-induced uveitis (EIU) in rats, intravital microscopy of leukocyte-endothelial adhesion; type: in vivo, male Lewis rats
Experimental: The endotoxin-induced uveitis (EIU) model is a widely used animal model of human bacterially-derived uveitis, involving inflammation of the uveal tract. The uveal tract comprises the middle layer of the eye, including the iris, ciliary body and […].
EIU was induced in male Lewis rats by intravitreal injection of 100 ng of lipopolysaccharide (LPS, Escherichia coli) in saline. Treatments of the cannabinoid 2 receptor (CB2R) agonist, HU-433 were administered, in the presence and absence of the selective antagonist, AM630. Cannabinoid treatments involved intravenous (i.v.) HU-433 (0.001-1 mg/kg), AM630 (2.5 mg/kg i.v.) and AM630+HU-433, administered 15 minutes after intravitreal injection of LPS. Intravital microscopy (IVM) was used to observe leukocyte-endothelial adhesion each hour after induction of EIU for a duration of 6 hours.
Data in FIG. 1 was collected from experiments using an animal model of ocular inflammation called endotoxin-induced uveitis. […] The level of inflammation is quantified by counting the number of adherent leukocytes in the iris microcirculation. Leukocytes must adhere to the microvasculature for more than 30 s (measured as adherent leukocytes per mm^2). Imaging was conducted in a minimum of 4 quadrants within the eye, 4 vessels each quadrant, 6 hours after inflammation was induced.
The strain of animals chosen for these experiments was based on preliminary testing conducted and published literature (see, for example: Toguri et al., 2014). The strain of mice chosen was BALB/c and Lewis rats were used. Animals were anesthetised prior to induction of uveitis. Mice were anesthetized with 5% isoflurane in 100% oxygen. Rats were anesthetized with 65 mg·kg^−1 of sodium pentobarbital. Depth of anesthesia was monitored via toe pinch test. The head of the animal was immobilized, and the sclera of the left eye was punctured with a 30-gauge needle at the dorsonasal quadrant at approximately the level of the equator. Mice received a total of 250 ng of LPS (E. coli 026:B6; Sigma-Aldrich, Oakville, ON, Canada) in 2 μl of sterile 0.9% saline. Rats received a total of 100 ng of LPS in 5 μl of sterile 0.9% saline. Intravitreal injections were made under microscopic control with a Hamilton syringe (Hamilton Company, Reno, Nev., USA), with a 30 G1/6 needle. To avoid touching the lens or causing any damage to the eye, the tip of the needle was directed towards the posterior pole and only the bevelled tip (2-3 mm) entered the vitreal cavity. The needle was held in place after injection for 5 seconds to avoid leakage of the LPS from the site of injection (sclerostomy). Sclerostomy was closed by tissue adhesive to prevent any leakage. Animals with bleeding or swelling post injection were excluded from the study.

[2] = system: corneal hypersensitivity to capsaicin; test: Corneal hyperalgesia model (silver nitrate cauterization), blinks to topical 1 μM capsaicin; type: in vivo, murine
From the text: The chemical cauterization model of corneal inflammation and hyperalgesia is an established model to look at corneal sensitization and pain. Chemical cauterization of the murine cornea using topical silver nitrate produces non-specific inflammation followed by chronic behavioral sensitization to subsequent chemical stimuli (modified from Wenk & Honda, 2003).
The corneal reflex blink test provides a behavioral assessment of corneal sensitization and hyperalgesia (decreased pain threshold). The hyperalgesia (defined as increased responsiveness to painful stimuli) is gauged by quantifying the number and frequency of a protective blinking response in the treated eye (stimulus-induced blinking) relative to control non-sensitized eyes (Wenk and Honda 2003). Anti-inflammatory agents and agents that act at targets on nociceptive nerves can reduce development of corneal sensitization and hyperalgesic activity (reduced protective blinking response in response to noxious irritant).
Using a model characterized by Wenk & Honda, 2003, chemical cauterization using silver nitrate application to the cornea was used to create a corneal hypersensitivity model. Hypersensitivity was determined by assessing blinks to an ocular topical application of 1 μM capsaicin. The blink response is one measure of the level of corneal hyperalgesia. Increased blinking in response to capsaicin in a cauterized eye indicates a higher level of pain (FIG. 9).
In a model of corneal hyperalgesia, chemical cauterization of the cornea produces corneal epithelial damage, corneal edema and inflammation. […] The effect of repeated dosing with the CB2 allosteric modulator, CBD-DMH, or the cannabinoid Δ^9THC that acts as an agonist at CB1 and CB2 receptors, was tested to determine if these agents could prevent the development of hyperalgesia. Animals were videoed before and after capsaicin administration using a handheld device and video images were analyzed off-line by an observer blinded to the treatment. […]

[3] = cited from earlier work; for stability: acidic solutions, heat, air and light
CB2 [4] = target: T1, CB2 (Homo sapiens, UniProt P34972); test: In-Cell western, PLCβ3 phosphorylation (Gαq) in HEK 293A cells transfected with hCB2; type: cell-based; parameters: expressed in transfected cells; conditions: HEK293-A; percentage of the maximal response to the agonist CP 55,940; read-out: Emax (%) ± SEM, PLCβ3 (Gαq)
Experimental: HEK cells were maintained at 37° C., 5% CO2 in Dulbecco's Modified Eagle's Medium (DMEM) supplemented with 10% Fetal Bovine Serum (FBS) and 10^4 U·mL^−1 Pen/Strep.
For In-Cell™ western analyses, cells were fixed for 10 min at room temperature with 4% paraformaldehyde and washed three times with 0.1 M PBS for 5 min each. Cells were incubated with blocking solution (0.1 M PBS, 5% normal goat serum, 0.3% TritonX-100, in dH2O) for 1 h at room temperature. Cells were treated with primary antibody diluted in antibody dilution buffer [0.1 M PBS, 1% (w/v) BSA, 0.3% TritonX-100, in dH2O] overnight at 4° C. Primary antibody solutions were: pERK1/2(Tyr205/185) (1:200), ERK1/2 (1:200), pPLCβ3(S537) (1:500), PLCβ3 (1:1000), or β-actin (1:2000; Santa Cruz Biotechnology). Cells were washed three times with 0.1 M PBS for 5 min each. Cells were then incubated in IR^CW800dye (1:500; Rockland Immunochemicals, Gilbertsville, Pa., USA) for 1 h at room temperature. Cells were washed three times with 0.1 M PBS for 5 min each. Cells were allowed to air-dry overnight.
In-Cell™ data were collected using the Odyssey Imaging system and software (version 3.0; Li-Cor, Lincoln, Nebr., USA).
Goodness of fit to non-linear regression models was tested in GraphPad (v. 5.0, Prism). […]

CB2 [5] = target: T1, CB2; test: In vitro CB2-dependent G protein signalling, overall conclusion (ERK, PLCβ3, cAMP); type: cell-based; parameters: expressed in transfected cells; host or cells: HEK 293A cells (transient transfection)
Experimental: Following 30 min treatment cells were lysed and cAMP activity was measured at 405 nm (RLU, relative light units). Concentration-response curves were fit using non-linear regression analysis (GraphPad Prism, version 5.0).

[6] = system: endotoxin-induced uveitis (EIU) model; test: LPS-induced uveitis (EIU) in mice, intravital microscopy of adherent leukocytes; type: in vivo, BALB/c Mice; conditions: CBD-DMH 10 mg/kg i.v. once right after intravitreal LPS; IVM at 5 hours
Experimental: Two different EIU experimental groups were examined in BALB/c Mice: • Group (A): Intravital microscopy (IVM) at 5 hours after intravitreal injection of saline (control) • Group (B): IVM at 5 hours after induction of EIU and i.v. administration of drug vehicle control (1 time, 0.2 mL 30% ethanol in saline right after intravitreal injection) • Group (C): IVM at 5 hours after induction of EIU and i.v. administration of cannabinoid (1 time, 0.2 mL 10 mg/kg CBD-DMH right after intravitreal injection).
The strain of animals chosen for these experiments was based on preliminary testing conducted and published literature (see, for example: Toguri et al., 2014). […] Depth of anesthesia was monitored via toe pinch test. […]
The technique of intravital microscopy (IVM) was used for in vivo investigation of leukocyte recruitment. The intravital fluorescence video microscope was focused on the iridial microcirculation, which allowed for imaging of the leukocyte-endothelial interactions. […] In each video, leukocyte recruitment was observed and recorded for 30 seconds each. […]
Several videos of each quadrant were recorded for 30 seconds. Leukocyte adhesion was the parameter analyzed. […] The number of adherent leukocytes within each vessel segment was calculated by measuring the diameter and length of vessel segment studied, assuming a cylindrical geometry of blood vessel. […]

CB2 [7] = target: T1, CB2; conditions: cited from earlier work
dispase-induced PVR = test: Dispase model of proliferative vitreoretinopathy (PVR): clinical score, histopathology, Iba1 microglia; conditions: 10 mg/kg i.p. daily for 7 days
[8] = system: experimental models of sepsis; test: Experimental models of sepsis; type: in vivo

T1 sequence (P34972 whole entry): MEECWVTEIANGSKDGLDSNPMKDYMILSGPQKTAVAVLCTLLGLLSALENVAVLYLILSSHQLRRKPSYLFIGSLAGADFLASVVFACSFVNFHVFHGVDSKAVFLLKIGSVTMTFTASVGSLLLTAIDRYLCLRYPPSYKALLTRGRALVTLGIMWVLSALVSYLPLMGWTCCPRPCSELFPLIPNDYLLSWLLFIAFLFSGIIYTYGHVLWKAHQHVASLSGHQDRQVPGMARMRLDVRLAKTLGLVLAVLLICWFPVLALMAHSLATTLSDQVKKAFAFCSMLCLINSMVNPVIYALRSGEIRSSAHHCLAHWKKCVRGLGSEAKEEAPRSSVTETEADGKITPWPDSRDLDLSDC

COc1ccc(C(=O)c2c(C)n(CCN3CCOCC3)c3cc(I)ccc23)cc1 [AM630, reference compound]
number of adherent leukocytes to the microvasculature, antagonist alone ([1]; AM630 2.5 mg/kg i.v. alone, p<0.01): significant increase | effect of CB2R antagonist pre-treatment on the agonist's decrease in leukocyte adhesion ([1]; AM630 2.5 mg/kg i.v. prior to CB2R agonist in EIU): abolished

C=C1CC/C=C(\C)CC[C@@H]2[C@@H]1CC2(C)C [Beta-C, β-caryophyllene]
corneal hyperalgesia ([2]; Beta-C, dose not given): appeared to also produce a reduction in hyperalgesia

C=C(C)[C@@H]1CCC(C)=C[C@H]1c1c(O)cc(CCCCC)cc1O [CBD, cannabidiol]
stability [3]: unstable in acidic solutions and when exposed to heat, air and light | water solubility [3]: poorly water-soluble | Emax (CB2 [4]): 51.7 ± 7.04% | mode of action on CB2-dependent G protein signalling (CB2 [5]): partial agonist

C=C(C)[C@@H]1CCC(C)=C[C@H]1c1c(O)cc(C(C)(C)CCCCCC)cc1O [CBD-DMH, cannabidiol-dimethylheptyl]
number of adherent leukocytes [6]: decrease in number of adherent leukocytes | mean number of blinks for 1 minute to 1 μM capsaicin ([2]; 6 hours post corneal insult, 3 doses topical 5% CBD-DMH, 1-way ANOVA p<0.05): statistically significant decrease in blinks compared to untreated and vehicle treated eyes | corneal hypersensitivity (blinks over 1 minute to 1 μM capsaicin) ([2]; unilateral cauterized eye, 3 doses ocular topical 5% CBD-DMH): eliminates this hypersensitivity; also recorded: reduces hypersensitivity in a comparable matter to ocular topical NSAID; also recorded: eliminated hypersensitivity to capsaicin | potency relative to CBD (CB2 [7]; analgesic and anti-inflammatory effects in animal models): more than 10 fold | psychoactivity (CB2 [7]): non-psychotropic | activation of CB2 in the absence of the orthosteric agonist CP55940 (CB2 [5]): does not activate CB2 | effect on potency and efficacy of the orthosteric CB2 agonist CP55940 (CB2 [5]): enhances the potency and efficacy | mode of action on CB2-dependent G protein signalling (CB2 [5]): positive allosteric modulator | clinical score of PVR (scale 0-5) (dispase-induced PVR): significantly decreased | histological score of PVR (scale 0-4) (dispase-induced PVR): significantly decreased

CCCCCCC(C)(C)c1cc(OC)c(C2C=C(CO)C3CC2C3(C)C)c(OC)c1 (stereo not shown) [HU-433]
number of adherent leukocytes in the iris microcirculation ([1]; HU-433 0.1 mg/kg i.v., 6 hours after intravitreal LPS, 0.1 mg/kg): significantly (p<0.05) reduce; also recorded: fewer adherent leukocytes | leukocyte-endothelial adhesion (inflammation) ([1]; HU-433 i.v. 0.01 and 0.1 mg/kg, 6 hours after induction of EIU): significantly (p<0.01) reduced | local release of inflammatory mediators ([1]; acute EIU): decreases local release of inflammatory mediators | potency in reducing ocular inflammation relative to HU-308 ([1]; experimental uveitis): more potent than HU-308 | potency in mitigating inflammation relative to HU-308 [8]: more potent than HU-308 | psychoactivity (CB2 [7]): no psychoactivity | potency relative to HU-308 (CB2 [7]; in vitro and in vivo systems): 2-3 orders of magnitude

CCCCCc1cc(O)c2c(c1)OC(C)(C)[C@@H]1CCC(C)=C[C@@H]21 [THC]
stability [3]: unstable in acidic solutions and when exposed to heat, air and light
